Measurements: patent publication US11633373B2, “Method for reduction of behavioral disorders in pigs” (Alzchem Trostberg GmbH, priority 2020, dated 2023)
“Also recorded” adds a separate entry of the source.

Test system: pigs (fattening animals of the Piétrain×Danbred breed)
Experiment: Tail biting (caudophagia) injury scoring in fattening pigs fed guanidinoacetic acid in the feed
Format: in vivo, pig (Sus scrofa domesticus)
Conditions: for Number of animals score 3 or 4: regardless of available space; for Number of animals with score 1 (without abnormalities) / Number of animals with score 2 (dry bite marks, not bleeding) / Number of animals with score 3 (bloody bite marks, moderate inflammation) / Number of animals with score 4 ((partial) loss, high-grade inflammation, large bleeding wounds) / Number of animals, total score 3 + 4: 96 animals
Text: A total of 1440 pigs (fattening animals of the Piétrain×Danbred breed) were used.
From the 91st day of life, the experiment started with different dosage of different amounts of guanidinoacetic acid in the feed.
After 60 days of life, 1152 animals were selected for the continuation of the experiment: Here, conspicuously weak animals and animals with easily recognizable injuries to the tail or other body parts were not used.
In the subsequent fattening period, the pigs were kept in 72 pens of 16 animals each on concrete slats without bedding. A drawing of the experimental setup is shown with FIGS. 1 to 3. The slat width was 18 mm with a tread width of 80 mm. Feed was provided ad libitum by means of type RM 05 mash feeders from IBO Stalltechnik GmbH. The feed was supplied via floury feed.
For each experimental parameter, 6 pens of mixed-sex were housed. For an even distribution, the animals were first divided into 4 main groups 1, 2, 3 and 4 of 288 animals each. Then, from each main group, animals were divided into 3 subgroups A, B and C (SG A, SG B, SG C) of 96 animals each, and from each subgroup, animals were separated into 6 pens. Thus, there were 12 experimental parameters with 6 replications each and 16 animals per replication, corresponding to 1152 animals.
The 72 pens were divided into 6 sections in a stable. All 4 main groups were represented in each section, with a pen size assigned to each main group (see Table 1). The pen sizes of main groups 3 and 4 were realized by removing railings from the standard pen of 12 m^2. To realize the pen size of main group 2, a part of a 24 m^2 pen was reduced by a railing.
Feeding from 91 days of life was performed in 2 phases, which were identical across all 4 main groups.
For subgroups B and C, guanidinoacetic acid was added to the feed in amounts of 0.04 wt. % and 0.12 wt. %, respectively, relative to the solid feed.
A maximum of 2 failures occurred per experimental regime during the fattening phase. Here, the score was evaluated at the time of the failure.
Essential for an evaluation of the stand is the ratio of uninjured or only slightly injured animals to moderately and severely injured animals. Since dry, non-bloody bite marks result from a playful non-aggressive act, animals with score 2 were added to the non-injured animals. Harmful to animal welfare is considered to occur at score 3 and above, i.e., bloody bite marks, resulting from aggressive acts that are no longer playful. Therefore, for an evaluation, the numbers for scores 3 and 4 were added and the percentage of these animals relative to the total number of the respective experimental group was evaluated.

[1] = experiment B1: 0.04 wt. % GAA in feed, 0.75 m^2/animal
[2] = experiment B2: 0.04 wt. % GAA in feed, 0.9 m^2/animal
[3] = experiment B3: 0.04 wt. % GAA in feed, 1.5 m^2/animal
[4] = experiment B4: 0.04 wt. % GAA in feed, 2.25 m^2/animal
[5] = experiment C1: 0.12 wt. % GAA in feed, 0.75 m^2/animal
[6] = experiment C2: 0.12 wt. % GAA in feed, 0.9 m^2/animal
[7] = experiment C3: 0.12 wt. % GAA in feed, 1.5 m^2/animal
[8] = experiment C4: 0.12 wt. % GAA in feed, 2.25 m^2/animal
[9] = guanidinoacetic acid given orally to pigs

N=C(N)NCC(=O)O [guanidinoacetic acid, Guanidinoacetic acid]
Number of animals score 3 or 4 (0.04 wt. % GAA in feed, experiments B1 + B2 + B3 + B4 pooled, 384 animals): 36
Injured animals (score 3 or 4) (0.04 wt. % GAA in feed, experiments B1 + B2 + B3 + B4 pooled, 384 animals, without supplementation 12.2%): 9.4%
Reduction of injured animals versus no supplementation (0.12 wt. % GAA in feed, 0.9 m^2/animal): almost halved the number of injured animals; also recorded: reduction of injured animals to almost half
Reduction of injured animals versus no supplementation (0.12 wt. % GAA in feed, 1.5 m^2/animal): more than halved; also recorded: reduction of injured animals to more than half
Number of animals score 3 or 4 (0.12 wt. % GAA in feed, experiments C1 + C2 + C3 + C4 pooled, 384 animals): 32
Injured animals (score 3 or 4) (0.12 wt. % GAA in feed, experiments C1 + C2 + C3 + C4 pooled, 384 animals, without supplementation 12.2%): 8.3%
Number of animals with score 1 (without abnormalities) [1]: 41
Number of animals with score 2 (dry bite marks, not bleeding) [1]: 41
Number of animals with score 3 (bloody bite marks, moderate inflammation) [1]: 10
Number of animals with score 4 ((partial) loss, high-grade inflammation, large bleeding wounds) [1]: 4
Number of animals, total score 3 + 4 [1]: 14
Injured animals (score 3 or 4) (experiment B1: 0.04 wt. % GAA in feed, 0.75 m^2/animal, without supplementation 15.6%): 14.6%
Number of animals with score 1 (without abnormalities) [2]: 50
Number of animals with score 2 (dry bite marks, not bleeding) [2]: 36
Number of animals with score 3 (bloody bite marks, moderate inflammation) [2]: 8
Number of animals with score 4 ((partial) loss, high-grade inflammation, large bleeding wounds) [2]: 2
Number of animals, total score 3 + 4 [2]: 10
Injured animals (score 3 or 4) (experiment B2: 0.04 wt. % GAA in feed, 0.9 m^2/animal, without supplementation 14.6%): 10.4%
Number of animals with score 1 (without abnormalities) [3]: 54
Number of animals with score 2 (dry bite marks, not bleeding) [3]: 36
Number of animals with score 3 (bloody bite marks, moderate inflammation) [3]: 5
Number of animals with score 4 ((partial) loss, high-grade inflammation, large bleeding wounds) [3]: 1
Number of animals, total score 3 + 4 [3]: 6
Injured animals (score 3 or 4) (experiment B3: 0.04 wt. % GAA in feed, 1.5 m^2/animal, without supplementation 11.5%): 6.3%
Number of animals with score 1 (without abnormalities) [4]: 55
Number of animals with score 2 (dry bite marks, not bleeding) [4]: 35
Number of animals with score 3 (bloody bite marks, moderate inflammation) [4]: 6
Number of animals with score 4 ((partial) loss, high-grade inflammation, large bleeding wounds) [4]: 0
Number of animals, total score 3 + 4 [4]: 6
Injured animals (score 3 or 4) (experiment B4: 0.04 wt. % GAA in feed, 2.25 m^2/animal, without supplementation 7.3%): 6.3%
Number of animals with score 1 (without abnormalities) [5]: 40
Number of animals with score 2 (dry bite marks, not bleeding) [5]: 43
Number of animals with score 3 (bloody bite marks, moderate inflammation) [5]: 10
Number of animals with score 4 ((partial) loss, high-grade inflammation, large bleeding wounds) [5]: 3
Number of animals, total score 3 + 4 [5]: 13
Injured animals (score 3 or 4) (experiment C1: 0.12 wt. % GAA in feed, 0.75 m^2/animal, without supplementation 15.6%): 13.5%
Number of animals with score 1 (without abnormalities) [6]: 52
Number of animals with score 2 (dry bite marks, not bleeding) [6]: 36
Number of animals with score 3 (bloody bite marks, moderate inflammation) [6]: 6
Number of animals with score 4 ((partial) loss, high-grade inflammation, large bleeding wounds) [6]: 2
Number of animals, total score 3 + 4 [6]: 8
Injured animals (score 3 or 4) (experiment C2: 0.12 wt. % GAA in feed, 0.9 m^2/animal, without supplementation 14.6%): 8.3%
Number of animals with score 1 (without abnormalities) [7]: 56
Number of animals with score 2 (dry bite marks, not bleeding) [7]: 35
Number of animals with score 3 (bloody bite marks, moderate inflammation) [7]: 4
Number of animals with score 4 ((partial) loss, high-grade inflammation, large bleeding wounds) [7]: 1
Number of animals, total score 3 + 4 [7]: 5
Injured animals (score 3 or 4) (experiment C3: 0.12 wt. % GAA in feed, 1.5 m^2/animal, without supplementation 11.5%): 5.2%
Number of animals with score 1 (without abnormalities) [8]: 55
Number of animals with score 2 (dry bite marks, not bleeding) [8]: 35
Number of animals with score 3 (bloody bite marks, moderate inflammation) [8]: 5
Number of animals with score 4 ((partial) loss, high-grade inflammation, large bleeding wounds) [8]: 1
Number of animals, total score 3 + 4 [8]: 6
Injured animals (score 3 or 4) (experiment C4: 0.12 wt. % GAA in feed, 2.25 m^2/animal, without supplementation 7.3%): 6.3%
Behavioral abnormalities in the form of tail biting (caudophagia) compared to the untreated control group [9]: less behavioral abnormalities in the form of tail biting
Biting attacks on conspecifics compared to an untreated control group [9]: fewer biting attacks on conspecifics
